Data: US20160263116A1, “COMBINATIONS” (GlaxoSmithKline LLC, priority 2012, published 2016)

Tests used:
[1] = tested on: Mero-14 mesothelioma cell line; assay: Anchorage-independent growth-death assay, Mero-14; format: cell-based, human; conditions: single agent, 6 days; for EC50 / IC50: Homo sapiens, 144 h; for EC50 / IC50 / gIC100: anchorage-independent; for EC50: read-out: dEC50; for IC50: read-out: gIC50; for Ymin-T0: negative = net cell kill
Method: (§1) Five human mesothelioma cell lines were used in these studies. Cells were grown in RPMI1640 media containing 10% FBS, 1% L-glutamine, 1% sodium pyruvate under standard cell culture conditions. The mesothelioma cell lines: Mero-14, Mero-82, NCI-H2052, NO36, and ONE58. The cellular response to Compound A or B was evaluated in an anchorage-independent cell growth assay that quantified the extent of cell growth inhibition and the net change in cell population. The assay was performed in black, clear bottom, untreated 384-well plates (Greiner #781096). It is important to use either non-tissue culture treated or Low Attachment plates to prevent cells from adhering to the plate during the assay. In brief, the assay was performed as described below. A 1% (weight/volume) stock of methylcellulose solution was prepared by dissolving 5 grams of methylcellulose (Sigma #M0512) in 495 mL of cell culture medium. […] Media can be substituted if the cells require different cell culture medium for growth. The dissolution often took a day with vigorous stirring at 4° C. maintaining sterile conditions. Cells were plated into a 384 well plate with assay conditions of 0.65% methylcellulose (final concentration) and 1000 cells per well in a final volume of 48 μL. […] The cells were mixed by inversion to distribute evenly, bubbles were dispersed and 48 μL was placed into the well with a positive displacement pipette. The plates were placed in a cell culture incubator containing 5% CO2 at 37° C. Serial dilution of compound in DMSO was done in a 384 well plate starting with μL of stock compound solution in the first column and 10 μL of DMSO in the other wells. Ten μL from the compound well was transferred into the DMSO containing well, mixed, and the serial dilution was continued with 10 μL transfers across the plate. Then, 4 μL of this DMSO diluted compound was added into wells of a new 384 well plate containing 105 μL of appropriate growth medium. This 'compound plate' was used to dose the assay plates containing cells in methylcellulose. For combination experiments, 20 μL of stock compound solution was a mixture of Compound A and Compound B at the designated ratio. For an example, for 1 to 1 ratio, 10 ul of Compound A at 40 mM and 10 ul of Compound B at 40 mM was mixed to generate ul of stock compound solution with both Compound A and Compound B at 20 mM concentration. […] Serial dilution and compound plate dilution was done as described above. Two μL from each well of the 'compound plate' was added to the individual wells of the 'cell plates' containing the 48 μL of cells in methylcellulose to initiate the assay. These assay plates were placed in the cell culture incubator for 6 days. One 'cell plate' was selected at random and was developed (see below) with Cell [NT] the time compound was added to the remaining cell plates and represents the time equal zero (T0) plate, i.e. it represents the number of cells at the time of compound addition. After 6 days the assay was stopped and the plates were developed by placing a black sticker on bottom of each plate to block light, 25 μL of CTG was added and then plates were incubate for 20 minutes at room temperature. The plates were scanned using a luminescence protocol on the EnVision (Perkin-Elmer). Results were expressed as a percent of the T0 value and plotted against the compound concentration. […] Positive values indicate net cell growth and negative values represent net cell kill. […] The results for the combination were analyzed by determination of Combination Index (CI) values using both mutually exclusive and mutually non-exclusive assumptions (12). The XC50 denotes that each parameter from the growth-death analysis was used, either gIC50 or gIC100 or […] values, to calculate the CI values. The A+B represents the XC50 value for the combination relative to the concentration of A and the B+A represents the XC50 value for the combination relative to the concentration of B in the combination.

[2] = tested on: Mero-82 mesothelioma cell line; assay: Anchorage-independent growth-death assay, Mero-82; format: cell-based, human; conditions: single agent, 6 days; for EC50 / IC50: Homo sapiens, 144 h; for EC50 / IC50 / gIC100: anchorage-independent; for EC50: read-out: dEC50; for IC50: read-out: gIC50; for Ymin-T0: negative = net cell kill
Method: as §1

[3] = tested on: NCI-H2052 mesothelioma cell line; assay: Anchorage-independent growth-death assay, NCI-H2052; format: cell-based, human; conditions: single agent, 6 days; for IC50: Homo sapiens, 144 h, read-out: gIC50; for Ymin-T0: negative = net cell kill
Method: (§2) Five human mesothelioma cell lines were used in these studies. Cells were grown in RPMI1640 media containing 10% FBS, 1% L-glutamine, 1% sodium pyruvate under standard cell culture conditions. The mesothelioma cell lines: Mero-14, Mero-82, NCI-H2052, NO36, and ONE58. The cellular response to Compound A or B was evaluated in an anchorage-independent cell growth assay that quantified the extent of cell growth inhibition and the net change in cell population. The assay was performed in black, clear bottom, untreated 384-well plates (Greiner #781096). It is important to use either non-tissue culture treated or Low Attachment plates to prevent cells from adhering to the plate during the assay. In brief, the assay was performed as described below. A 1% (weight/volume) stock of methylcellulose solution was prepared by dissolving 5 grams of methylcellulose (Sigma #M0512) in 495 mL of cell culture medium. […] Media can be substituted if the cells require different cell culture medium for growth. The dissolution often took a day with vigorous stirring at 4° C. maintaining sterile conditions. Cells were plated into a 384 well plate with assay conditions of 0.65% methylcellulose (final concentration) and 1000 cells per well in a final volume of 48 μL. […] The cells were mixed by inversion to distribute evenly, bubbles were dispersed and 48 μL was placed into the well with a positive displacement pipette. The plates were placed in a cell culture incubator containing 5% CO2 at 37° C. Serial dilution of compound in DMSO was done in a 384 well plate starting with μL of stock compound solution in the first column and 10 μL of DMSO in the other wells. Ten μL from the compound well was transferred into the DMSO containing well, mixed, and the serial dilution was continued with 10 μL transfers across the plate. Then, 4 μL of this DMSO diluted compound was added into wells of a new 384 well plate containing 105 μL of appropriate growth medium. This 'compound plate' was used to dose the assay plates containing cells in methylcellulose. For combination experiments, 20 μL of stock compound solution was a mixture of Compound A and Compound B at the designated ratio. For an example, for 1 to 1 ratio, 10 ul of Compound A at 40 mM and 10 ul of Compound B at 40 mM was mixed to generate ul of stock compound solution with both Compound A and Compound B at 20 mM concentration. […] Serial dilution and compound plate dilution was done as described above. Two μL from each well of the 'compound plate' was added to the individual wells of the 'cell plates' containing the 48 μL of cells in methylcellulose to initiate the assay. These assay plates were placed in the cell culture incubator for 6 days. One 'cell plate' was selected at random and was developed (see below) with Cell [NT] the time compound was added to the remaining cell plates and represents the time equal zero (T0) plate, i.e. it represents the number of cells at the time of compound addition. […] The plates were scanned using a luminescence protocol on the EnVision (Perkin-Elmer). Results were expressed as a percent of the T0 value and plotted against the compound concentration. […] The results for the combination were analyzed by determination of Combination Index (CI) values using both mutually exclusive and mutually non-exclusive assumptions (12). […]

[4] = tested on: NO36 mesothelioma cell line; assay: Anchorage-independent growth-death assay, NO36; format: cell-based, human; conditions: single agent, 6 days; for IC50: Homo sapiens, 144 h, read-out: gIC50; for Ymin-T0: negative = net cell kill
Method: as §2

[5] = tested on: ONE58 mesothelioma cell line; assay: Anchorage-independent growth-death assay, ONE58; format: cell-based, human; conditions: single agent, 6 days; for IC50: read-out: gIC50; for Ymin-T0: negative = net cell kill
Method: as §1

[6] = tested on: five human mesothelioma cell lines; assay: Anchorage-independent growth-death assay, summary over the cell line panel; format: cell-based; conditions: 6 days of compound exposure, FIG. 4
Method: Five human mesothelioma cell lines were used in these studies. Cells were grown in RPMI1640 media containing 10% FBS, 1% L-glutamine, 1% sodium pyruvate under standard cell culture conditions. The mesothelioma cell lines: Mero-14, Mero-82, NCI-H2052, NO36, and ONE58.
The cellular response to Compound A or B was evaluated in an anchorage-independent cell growth assay that quantified the extent of cell growth inhibition and the net change in cell population. The assay was performed in black, clear bottom, untreated 384-well plates (Greiner #781096). It is important to use either non-tissue culture treated or Low Attachment plates to prevent cells from adhering to the plate during the assay. In brief, the assay was performed as described below.
A 1% (weight/volume) stock of methylcellulose solution was prepared by dissolving 5 grams of methylcellulose (Sigma #M0512) in 495 mL of cell culture medium. […]
After 6 days the assay was stopped and the plates were developed by placing a black sticker on bottom of each plate to block light, 25 μL of CTG was added and then plates were incubate for 20 minutes at room temperature. The plates were scanned using a luminescence protocol on the EnVision (Perkin-Elmer).
Results were expressed as a percent of the T0 value and plotted against the compound concentration. […]

[7] = Homo sapiens, 144 h, anchorage-independent

CC(=O)Nc1cccc(-n2c(=O)n(C3CC3)c(=O)c3c(Nc4ccc(I)cc4F)n(C)c(=O)c(C)c32)c1 [Compound B, N-{3-[3-cyclopropyl-5-(2-fluoro-4-iodo-phenylamino)-6,8-dimethy-2,4,7-trioxo-3,4,6,7-tetrahydro-2H-pyrido[4,3-d]pyrimidin-1-yl]phenyl}acetamide]
EC50 [1]: 71 nM
IC50 [1]: 6.6 nM
gIC100 [1]: 26 nM
Ymin-T0 [1]: −78%
EC50 [2]: 191 nM
IC50 [2]: 10 nM
gIC100 [2]: 67 nM
Ymin-T0 [2]: −89%
IC50 ([3]; anchorage-independent): 16 nM
Ymin-T0 [3]: 31%
IC50 ([4]; anchorage-independent): 134 nM
gIC100 ([4]; anchorage-independent): 2345 nM
Ymin-T0 [4]: −17%
EC50 ([5]; Homo sapiens, 144 h, anchorage-independent, read-out: dEC50): 190 nM
IC50 [5, 7]: 8.8 nM
gIC100 ([5]; anchorage-independent): 0.045 µM
Ymin-T0 [5]: −92%
net change in cell population (Ymin-T0), in words [6]: cytotoxic in three of the five cell lines

CONC(=O)c1ccccc1Nc1cc(Nc2cc(C)nn2C(C)C)ncc1Cl [Compound A, 2-[(5-Chloro-2-{[3-methyl-1-(1-methylethyl)-1H-pyrazol-5-yl]amino}-4-pyridinyl)amino]-N-(methyloxy)benzamide]
EC50 [1]: 9580 nM
IC50 [1]: 56 nM
gIC100 [1]: 3888 nM
Ymin-T0 [1]: −52%
EC50 [2]: 6900 nM
IC50 [2]: 16 nM
gIC100 [2]: 983 nM
Ymin-T0 [2]: −53%
IC50 ([3]; anchorage-independent): 408 nM
gIC100 ([3]; anchorage-independent): 5.73 µM
Ymin-T0 [3]: −30%
IC50 ([4]; anchorage-independent): 17000 nM
Ymin-T0 [4]: 134%
IC50 [5, 7]: 23 nM
gIC100 ([5]; anchorage-independent): 6.135 µM
Ymin-T0 [5]: −14%
net change in cell population (Ymin-T0), in words [6]: generally cytostatic
